Target: c-MET (Homo sapiens, UniProt P08581)
Assay: Ki determination for the inhibition of c-MET (standard radiometric 33P-ATP kinase assay, polyE4Y substrate)
Format: biochemical
Settings: 1.0 nM c-Met, 35 μM ATP, 0.5 mg/mL polyE4Y, 20 min; competitive tight-binding fit
Procedure: Ki Determination for the Inhibition of c-MET
Compounds of the invention were screened for their ability to inhibit c-MET kinase activity using a standard radiometric assay. Briefly, in this kinase assay the transfer of the terminal ^33P-phosphate in ^33P-ATP to substrate polyE4Y is interrogated. The assay was carried out in 96-well plates to a final volume of 100 μL per well containing 1.0 nM c-Met, 100 mM HEPES (pH 7.5), 10 mM MgCl2, 25 mM NaCl, 0.01% BSA, 1 mM DTT, 0.5 mg/mL polyE4Y, and 35 μM ATP. Accordingly, compounds of the invention were dissolved in DMSO to make 10 mM initial stock solutions. Serial dilutions in DMSO were then made to obtain the final solutions for the assay. A 1.5 μL aliquot of DMSO or inhibitor in DMSO was added to each well. The reaction was initiated by the addition of ^33P-ATP and polyE4Y (obtained from Sigma). After 20 min, the reaction was quenched with 50 μL of 30% trichloroacetic acid (TCA) containing 4 mM ATP. The reaction mixture was transferred to the 0.66 mm GF filter plates (Corning) and washed three times with 5% TCA. Following the addition of 50 μL of Ultimate Gold™ high efficiency scintillant (Packard Bioscience), the samples were counted in a Packard TopCount NXT Microplate Scintillation and Luminescence Counter (Packard BioScience). The Ki values were calculated using Microsoft Excel Solver macros to fit the data to the kinetic model for competitive tight-binding inhibition.

Sequence of c-MET (P08581 25-1390): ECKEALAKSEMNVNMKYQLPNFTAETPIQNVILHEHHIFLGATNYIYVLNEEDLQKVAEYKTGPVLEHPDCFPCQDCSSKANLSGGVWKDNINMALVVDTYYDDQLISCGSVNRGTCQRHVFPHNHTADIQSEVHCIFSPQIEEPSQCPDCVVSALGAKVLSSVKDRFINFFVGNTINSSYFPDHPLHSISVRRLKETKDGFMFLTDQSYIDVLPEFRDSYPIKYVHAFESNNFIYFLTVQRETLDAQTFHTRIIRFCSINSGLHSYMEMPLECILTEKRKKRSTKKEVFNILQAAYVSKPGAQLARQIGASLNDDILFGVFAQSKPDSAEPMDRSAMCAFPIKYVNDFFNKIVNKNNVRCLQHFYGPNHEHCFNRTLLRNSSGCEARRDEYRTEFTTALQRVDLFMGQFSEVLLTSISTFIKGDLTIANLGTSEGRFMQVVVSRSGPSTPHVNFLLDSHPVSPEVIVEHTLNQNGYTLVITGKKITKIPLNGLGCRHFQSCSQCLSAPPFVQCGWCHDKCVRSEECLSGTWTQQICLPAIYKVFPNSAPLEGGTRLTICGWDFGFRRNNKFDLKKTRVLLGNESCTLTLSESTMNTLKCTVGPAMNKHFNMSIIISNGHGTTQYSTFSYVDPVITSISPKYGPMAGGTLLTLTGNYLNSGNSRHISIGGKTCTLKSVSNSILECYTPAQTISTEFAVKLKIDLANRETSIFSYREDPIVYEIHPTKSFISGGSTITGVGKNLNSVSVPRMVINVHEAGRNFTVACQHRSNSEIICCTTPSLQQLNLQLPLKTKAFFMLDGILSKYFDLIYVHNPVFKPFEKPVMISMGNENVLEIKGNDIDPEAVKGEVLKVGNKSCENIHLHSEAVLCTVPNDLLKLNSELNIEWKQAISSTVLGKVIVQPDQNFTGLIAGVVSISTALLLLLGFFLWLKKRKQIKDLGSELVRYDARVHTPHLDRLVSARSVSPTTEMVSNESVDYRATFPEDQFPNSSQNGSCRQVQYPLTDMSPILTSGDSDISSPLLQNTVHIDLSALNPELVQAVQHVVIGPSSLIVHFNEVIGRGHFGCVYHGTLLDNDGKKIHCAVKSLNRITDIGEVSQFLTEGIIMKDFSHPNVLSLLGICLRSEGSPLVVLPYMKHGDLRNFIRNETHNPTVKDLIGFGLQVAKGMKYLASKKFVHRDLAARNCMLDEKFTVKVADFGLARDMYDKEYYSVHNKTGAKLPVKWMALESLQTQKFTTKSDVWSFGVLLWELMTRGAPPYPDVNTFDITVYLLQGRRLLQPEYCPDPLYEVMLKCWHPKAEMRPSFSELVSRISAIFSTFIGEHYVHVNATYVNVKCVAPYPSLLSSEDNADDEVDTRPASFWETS

| SMILES | Ki |
| --- | --- |
| Nc1ncc(-c2ccccc2F)cc1-c1nnnn1-c1cccc(F)c1F [I-A-313] | ≤ 100 nM |
| Nc1ncc(-c2cnc3[nH]ccc3c2)cc1-c1nnnn1-c1cccc(Cl)c1Cl [I-A-92] | ≤ 100 nM |
| Nc1ncc(-c2ccc(N3CCCC3)nc2)cc1-c1nncn1-c1cccc(F)c1F [I-A-40] | 100 to 1000 nM |
| COC(=O)c1ccc(-c2cnc(N)c(-c3nnnn3-c3cccc(F)c3F)c2)cc1 [I-A-316] | 100 to 1000 nM |
| CC(C)C(=O)Nc1ccc(-c2cnc(N)c(-c3nnnn3-c3cccc(F)c3F)c2)cc1 [I-A-193] | ≤ 100 nM |
| Nc1ncc(-c2cccc(O)c2)cc1-c1nnnn1-c1cccc(F)c1F [I-A-247] | ≤ 100 nM |
| Nc1ncc(-c2ccc(CNC3CCC3)cc2)cc1-c1nnnn1-c1cccc(F)c1F [I-A-151] | ≤ 100 nM |
| Nc1ncc(-c2ccsc2)cc1-c1nnnn1-c1cccc(F)c1F [I-A-143] | ≤ 100 nM |
| Nc1ncc(-c2cnn([C@H]3CCNC3)c2)cc1-c1nnnn1-c1cccc(F)c1F [I-A-412] | ≤ 100 nM |
| Nc1ncc(-c2ccc(CN3CCCC3)cc2)cc1-c1nnnn1-c1c(Cl)cccc1Cl [I-A-622] | ≤ 100 nM |
| COC(=O)[C@H](CC(C)C)NC(=O)Nc1ccc(-c2cnc(N)c(-c3nnnn3-c3cccc(F)c3F)c2)cc1 [I-A-330] | 100 to 1000 nM |
| Nc1ncc(-c2ccc(CN3CC[C@@H](O)C3)cc2)cc1-c1nnnn1-c1cccc(F)c1F [I-A-130] | ≤ 100 nM |
| CC(=O)N1CCC(n2cc(-c3cnc(N)c(-c4nnnn4-c4cccc(F)c4Cl)c3)cn2)CC1 [I-A-392] | 100 to 1000 nM |
| CC(=O)Nc1ccc(-c2cnc(N)c(-c3nnnn3-c3cc(F)cc(F)c3Cl)c2)cc1 [I-A-583] | 100 to 1000 nM |
| Nc1ncc(-c2ccc(C(=O)NC3CC3)cc2)cc1-c1nnnn1-c1cccc(F)c1F [I-A-137] | ≤ 100 nM |
| Nc1ncc(-c2ccc(F)c(Cl)c2)cc1-c1nncn1-c1cccc(F)c1F [I-A-111] | 100 to 1000 nM |
| Nc1ncc(-c2ccc(NC(=O)c3cccs3)cc2)cc1-c1nnnn1-c1cccc(F)c1F [I-A-161] | 100 to 1000 nM |
| Nc1ncc(-c2ccc(F)cc2)cc1-c1nncn1-c1cccc(F)c1F [I-A-112] | 100 to 1000 nM |
| Nc1ncc(-c2cnn(CC(O)CO)c2)cc1-c1nc2cnccc2n1-c1cccc(F)c1F [I-D-10] | ≤ 100 nM |
| Nc1ncc(-c2cccnc2)cc1-c1nnnn1-c1c(F)cccc1Cl [I-A-617] | 100 to 1000 nM |
| Nc1ncc(-c2cnn(C3CCN(C(=O)N4CCCC4)CC3)c2)cc1-c1nnnn1-c1cccc(Cl)c1F [I-A-443] | ≤ 100 nM |
| CN(C)Cc1ccc(-c2cnc(N)c(-c3nnnn3-c3cccc(Cl)c3F)c2)cc1 [I-A-360] | ≤ 100 nM |
| CN(C)CC(=O)N1CCC(n2cc(-c3cnc(N)c(-c4nnnn4-c4cccc(Cl)c4F)c3)cn2)CC1 [I-A-444] | ≤ 100 nM |
| Nc1ncc(-c2ccc(C3CCCN3)cc2)cc1-c1nnnn1-c1cccc(F)c1F (centres unmarked) [I-A-258] | ≤ 100 nM |
| Nc1ncc(-c2nccs2)cc1-c1nnnn1-c1cccc(F)c1F [I-A-539] | 100 to 1000 nM |
| Nc1ncc(-c2ccc(CN3CCCC(CO)C3)cc2)cc1-c1nnnn1-c1cccc(Cl)c1Cl (centres unmarked) [I-A-99] | ≤ 100 nM |

| SMILES | Ki |
| --- | --- |
| Nc1ncc(-c2cnn(CCN3CCCC3)c2)cc1-c1nc2cnccc2n1-c1cccc(F)c1F [I-D-11] | ≤ 100 nM |
| Nc1ncc(-c2cccc(C(=O)N3CCOCC3)c2)cc1-c1nnnn1-c1cccc(F)c1F [I-A-320] | 100 to 1000 nM |
| COc1ccc(F)cc1-n1nnnc1-c1cc(-c2cnn(C3CCNCC3)c2)cnc1N [I-A-633] | 100 to 1000 nM |
| Nc1ncc(-c2cnn(C3CNC3)c2)cc1-c1nnnn1-c1cccc(F)c1F [I-A-426] | ≤ 100 nM |
| CN(Cc1ccc(-c2cnc(N)c(-c3nnnn3-c3cccc(Cl)c3Cl)c2)cc1)Cc1cccnc1 [I-A-107] | 100 to 1000 nM |
| C[C@@H](c1ccc(-c2cnc(N)c(-c3nnnn3-c3cccc(F)c3F)c2)cc1)N1CCCC1 [I-A-211] | ≤ 100 nM |
| Cc1ccccc1-c1cnc(N)c(-c2nnnn2-c2cccc(F)c2F)c1 [I-A-241] | 100 to 1000 nM |
| CC1(C)CN(c2cccc(-c3cnc(N)c(-c4nnnn4-c4cccc(F)c4F)c3)c2)C1=O [I-A-324] | 100 to 1000 nM |
| Nc1ncc(-c2ccc(CN3CCCC3)cc2)cc1-c1nnnn1-c1c(F)ccc(F)c1Cl [I-A-620] | ≤ 100 nM |
| Nc1ncc(-c2ccncc2)nc1-c1nncn1-c1cccc(F)c1F [I-A-3] | 100 to 1000 nM |
| CN1CCN(c2ccc(-c3cnc(N)c(-c4ncsc4-c4cccc(Cl)c4Cl)c3)cc2)CC1 [I-C-11] | 100 to 1000 nM |
| NC(=O)Nc1ccc(-c2cnc(N)c(-c3nnnn3-c3cccc(F)c3F)c2)cc1 [I-A-183] | ≤ 100 nM |
| CC(=O)Nc1ccc(-c2cnc(N)c(-c3nnnn3-c3c(F)cccc3Cl)c2)cc1 [I-A-639] | 100 to 1000 nM |
| Nc1ncc(-c2ccc(NC(=O)N3CCCC3)cc2)cc1-c1nnnn1-c1cccc(F)c1F [I-A-276] | ≤ 100 nM |
| NC(=O)[C@@H]1CCCN1Cc1ccc(-c2cnc(N)c(-c3nnnn3-c3cccc(F)c3F)c2)cc1 [I-A-132] | ≤ 100 nM |
| Nc1ncc(-c2cnn([C@@H]3CCNC3)c2)cc1-c1nnnn1-c1cccc(F)c1F [I-A-404] | ≤ 100 nM |
| Nc1ncc(-c2ccnc(F)c2)cc1-c1nnnn1-c1cccc(F)c1F [I-A-319] | 100 to 1000 nM |
| CC(=O)Nc1cccc(-c2cnc(N)c(-c3nnnn3-c3cccc(Cl)c3C)c2)c1 [I-A-565] | 100 to 1000 nM |
| Nc1ncc(-c2cc3c(s2)CCNCC3)cc1-c1nnnn1-c1cccc(F)c1F [I-A-430, 3-(1-(2,3-Difluorophenyl)-1H-tetrazol-5-yl)-5-(5,6,7,8-tetrahydro-4H-thieno[3,2-d]azepin-2-yl)pyridin-2-amine] | ≤ 100 nM |
| Nc1ncc(-c2ccc(CN3CCCC3)cc2)cc1-c1nnnn1-c1cccc(F)c1F [I-A-67] | ≤ 100 nM |
| Nc1ncc(C2=CCNCC2)cc1-c1nnnn1-c1cccc(F)c1F [I-A-525] | 100 to 1000 nM |
| Nc1ncc(-c2ccc(C3CCNCC3)s2)cc1-c1nnnn1-c1cccc(F)c1F [I-A-415] | ≤ 100 nM |
| Nc1ncc(-c2cccnc2)cc1-c1nnnn1-c1cc(Cl)ccc1F [I-A-554] | 100 to 1000 nM |
| CC(=O)Nc1ccc(-c2cnc(N)c(-c3nnnn3-c3cc(Cl)cc(Cl)c3)c2)cc1 [I-A-587] | 100 to 1000 nM |
| CCNC(=O)Nc1nc2cc(-c3cnc(N)c(-c4nnnn4-c4cccc(F)c4F)c3)c(OC)cc2[nH]1 [I-A-142] | 100 to 1000 nM |
| Nc1ncc(-c2cccs2)cc1-c1nnnn1-c1cccc(F)c1F [I-A-487] | ≤ 100 nM |

| SMILES | Ki |
| --- | --- |
| Nc1ncc(-c2ccc(CN3CCCC3)c(F)c2)cc1-c1nnnn1-c1cccc(F)c1F [I-A-213] | ≤ 100 nM |
| Nc1ncc(-c2cnn(CC(=O)O)c2)cc1-c1nnnn1-c1cccc(F)c1F [I-A-350] | 100 to 1000 nM |
| Cc1nn(C2CCNCC2)c(C)c1-c1cnc(N)c(-c2nnnn2-c2cccc(Cl)c2F)c1 [I-A-479] | 100 to 1000 nM |
| Nc1ncc(-c2cc3c(s2)CCNCC3)cc1-c1nnnn1-c1cccc(Cl)c1Cl [I-A-431] | ≤ 100 nM |
| CN1CCN(c2ccc(-c3cnc(N)c(-c4nc5cnccc5n4-c4cccc(F)c4F)c3)cc2)CC1 [I-D-2] | ≤ 100 nM |
| Nc1ncc(-c2cnc3[nH]ccc3c2)nc1-c1nncn1-c1cccc(F)c1F [I-A-13] | ≤ 100 nM |
| Nc1ncc(-c2cccc(Cl)c2)cc1-c1nnnn1-c1cccc(F)c1F [I-A-225] | 100 to 1000 nM |
| CN1CCN(c2ccc(-c3cnc(N)c(-c4nc5cccnc5n4-c4cccc(Cl)c4F)c3)cc2)CC1 [I-D-17] | 100 to 1000 nM |
| CN(C)Cc1ccc(-c2cnc(N)c(-c3nn(CCO)cc3-c3cccc(Cl)c3Cl)c2)cc1 [I-B-14] | 100 to 1000 nM |
| Nc1ncc(C2=CCN(Cc3cccnc3)CC2)cc1-c1nnnn1-c1cccc(F)c1F [I-A-644] | 100 to 1000 nM |
| CN1CCN(Cc2ccc(-c3cnc(N)c(-c4nnnn4-c4cccc(F)c4F)n3)cc2)CC1 [I-A-50] | ≤ 100 nM |
| CC(=O)Nc1ccc(-c2cnc(N)c(-c3nc4cnccc4n3-c3cccc(F)c3F)c2)cc1 [I-D-13] | ≤ 100 nM |
| N#Cc1ccc(-c2cnc(N)c(-c3nnnn3-c3cccc(Cl)c3Cl)c2)cc1 [I-A-89] | 100 to 1000 nM |
| Nc1ncc(-c2ccc(N3CCCC3)nc2)cc1-c1nnnn1-c1cccc(Cl)c1Cl [I-A-82] | 100 to 1000 nM |
| Nc1ncc(-c2cccc(N3CCNCC3)c2)cc1-c1nccn1-c1cccc(Cl)c1Cl [I-A-401] | ≤ 100 nM |
| CC(=O)N1CCc2cc(-c3cnc(N)c(-c4nnnn4-c4cccc(F)c4F)c3)ccc21 [I-A-182] | ≤ 100 nM |
| CC(=O)Nc1ccc(-c2cnc(N)c(-c3nnnn3-c3cccc(F)c3F)c2)c(F)c1 [I-A-126] | ≤ 100 nM |
| CC(=O)Nc1cccc(-c2cnc(N)c(-c3nnnn3-c3cc(Cl)ccc3F)c2)c1 [I-A-568] | 100 to 1000 nM |
| Nc1ncc(-c2cnn(C3CCCCC3)c2)cc1-c1nnnn1-c1cccc(F)c1F [I-A-403] | ≤ 100 nM |
| Nc1ncc(-c2cnn(C3CCNCC3)c2)cc1-c1nc2cccnc2n1-c1cccc(F)c1F [I-D-7] | ≤ 100 nM |
| Nc1ncc(-c2cc3c(s2)CCNCC3)cc1-n1nnnc1-c1cccc(F)c1F [I-E-2] | 100 to 1000 nM |
| Nc1ncc(-c2ccc(OCCO)cc2)cc1-c1nnnn1-c1cccc(F)c1F [I-A-283] | ≤ 100 nM |
| Nc1ncc(-c2ccccc2Cl)cc1-c1nnnn1-c1cccc(F)c1F [I-A-224] | 100 to 1000 nM |
| COCCOC(=O)Nc1cccc(-c2cnc(N)c(-c3nnnn3-c3cccc(F)c3F)c2)c1 [I-A-271] | 100 to 1000 nM |
| Nc1ncc(-c2cccc(F)c2)cc1-c1nnnn1-c1cccc(F)c1F [I-A-314] | ≤ 100 nM |

Reference: patent US8232406B2, “c-MET protein kinase inhibitors” (Vertex Pharmaceuticals Incorporated, priority 2006, dated 2012)
